Data on four molecules can be found in patent US7482453B2, “Process for the manufacture of (+)-(S)-clopidogrel bisulfate form-1” (Wockhardt Ltd., priority 2003, dated 2009).

Molecules are shown by their SMILES. Structures can show the parent of a compound that is named as a salt.

For data set [1], the system named is platelet aggregation. The following applies: cited from earlier work; for Platelet aggregation inhibiting activity of the enantiomers: as described in EP 281459.
For data set [2] the following is noted: versus Aspirin; cited from earlier work.
For data set [3] the following is noted: Form-I obtained by the ethyl acetate process.

In the case of `COC(=O)[C@H](c1ccccc1Cl)N1CCc2sccc2C1` [Clopidogrel hydrogen sulfate, bisulfate of methyl-(+)-(S)-α-(2-chlorophenyl)-4,5,6,7-tetrahydrothieno[3,2,-c]pyridine-5-acetate], the “Platelet aggregation inhibiting activity of the enantiomers” value in data set [1] is on record as “excellent platelet aggregation inhibiting activity”.

In the case of `COC(=O)[C@H](c1ccccc1Cl)N1CCc2sccc2C1` [Clopidogrel], in data set [1] (recent studies, versus Aspirin), the “Effectiveness in blocking platelet aggregation compared with Aspirin” value is reported as “more effective in blocking platelet aggregation than Asprin”. Besides, the “Gastrointestinal bleeding compared with Aspirin” value in data set [2] is recorded as “much less gastrointestinal bleeding than Asprin”.

Take `COC(=O)[C@H](c1ccccc1Cl)N1CCc2sccc2C1` [Form-I, Methyl-(+)-(S)-α-(2-Chlorophenyl)-6,7-dihydrothieno[3,2-c]pyridine-5(4H)-acetate bisulfate Form-I]: in data set [3], the “Stability of the crystal form / conversion to other forms” value was “stable and does not convert to any other forms”.

Regarding `COC(=O)C(c1ccccc1Cl)N1CCc2sccc2C1` (single isomer, unassigned) [levo-rotatory isomer], the “Platelet aggregation inhibiting activity of the enantiomers” value in data set [1] was “less active”.
